# From patent US12473278B2 (Industry—University Cooperation Foundation Hangyang …, priority 2019, dated 2025)
# Like-named read-outs stand apart in the source and are kept apart here.
# Key:
# BTK = BTK (Homo sapiens (Human), UniProt Q06187); assay: Kinase panel screening; conditions: read-out: % inhibition rate
# Description: (§1) Measurement of Inhibitory Activity Against Various Protein Kinases
# RON/MSTIR = RON/MSTIR (Homo sapiens (Human), UniProt Q04912); assay: Kinase panel screening; conditions: read-out: % inhibition rate
# Description: as §1
# LCK = LCK (Homo sapiens (Human), UniProt P06239); assay: Kinase panel screening; type: biochemical; conditions: read-out: % inhibition rate
# IGFIR = IGFIR (Homo sapiens (Human), UniProt P08069); assay: Kinase panel screening; conditions: read-out: % inhibition rate
# Description: as §1
# ERK1 = ERK1 (Homo sapiens (Human), UniProt P27361); assay: Kinase panel screening; conditions: read-out: % inhibition rate
# Description: as §1
# Aurora A = Aurora A (Homo sapiens (Human), UniProt O14965); assay: Kinase panel screening; conditions: read-out: % inhibition rate
# Description: as §1
# FLT3 [1] = target: T1, FLT3 (Homo sapiens (Human), UniProt P36888); assay: Measurement of FLT3 enzyme activity; type: biochemical
# T1 sequence (P36888 27-993): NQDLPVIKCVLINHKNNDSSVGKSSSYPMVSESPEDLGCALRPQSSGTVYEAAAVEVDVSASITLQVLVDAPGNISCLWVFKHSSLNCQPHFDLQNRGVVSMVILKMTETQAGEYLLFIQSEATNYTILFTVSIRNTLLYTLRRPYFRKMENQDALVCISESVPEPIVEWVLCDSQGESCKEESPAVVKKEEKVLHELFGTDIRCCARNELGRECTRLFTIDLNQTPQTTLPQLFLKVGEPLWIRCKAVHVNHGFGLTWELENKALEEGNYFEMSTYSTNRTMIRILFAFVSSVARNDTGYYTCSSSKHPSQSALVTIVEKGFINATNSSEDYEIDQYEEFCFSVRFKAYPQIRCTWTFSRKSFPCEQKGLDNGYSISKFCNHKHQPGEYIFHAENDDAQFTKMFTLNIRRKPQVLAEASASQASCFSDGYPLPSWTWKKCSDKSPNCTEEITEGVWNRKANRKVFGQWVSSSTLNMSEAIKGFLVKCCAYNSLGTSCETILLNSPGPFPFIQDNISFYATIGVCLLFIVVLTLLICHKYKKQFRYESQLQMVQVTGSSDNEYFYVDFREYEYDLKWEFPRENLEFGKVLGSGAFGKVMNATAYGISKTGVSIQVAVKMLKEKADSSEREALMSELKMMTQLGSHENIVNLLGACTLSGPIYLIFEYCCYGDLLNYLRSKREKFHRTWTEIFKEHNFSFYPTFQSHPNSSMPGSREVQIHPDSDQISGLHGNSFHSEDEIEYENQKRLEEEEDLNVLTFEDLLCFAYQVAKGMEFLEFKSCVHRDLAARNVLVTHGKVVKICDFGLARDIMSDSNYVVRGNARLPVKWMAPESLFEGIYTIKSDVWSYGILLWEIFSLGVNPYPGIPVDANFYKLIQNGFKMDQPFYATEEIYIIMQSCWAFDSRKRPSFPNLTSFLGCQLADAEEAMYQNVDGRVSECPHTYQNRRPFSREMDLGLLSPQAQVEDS
# Description: Measurement of FLT3 Enzyme Activity
# A change in FLT3 enzyme activity by treatment with the benzimidazole derivatives of the following Table 1 according to the present invention was confirmed by IC50.
# LYN = LYN (Homo sapiens (Human), UniProt P07948); assay: Kinase panel screening; conditions: read-out: % inhibition rate
# Description: as §1
# PLK1 = PLK1 (Homo sapiens (Human), UniProt P53350); assay: Kinase panel screening; type: biochemical; conditions: read-out: % inhibition rate
# EGFR = EGFR (Homo sapiens (Human), UniProt P00533); assay: Kinase panel screening; conditions: read-out: % inhibition rate
# Description: as §1
# AKT1 = AKT1 (Homo sapiens (Human), UniProt P31749); assay: Kinase panel screening; conditions: read-out: % inhibition rate
# Description: as §1
# RAFI = RAFI (Homo sapiens (Human), UniProt P04049); assay: Kinase panel screening; conditions: read-out: % inhibition rate
# Sequence of RAFI (P04049 whole entry): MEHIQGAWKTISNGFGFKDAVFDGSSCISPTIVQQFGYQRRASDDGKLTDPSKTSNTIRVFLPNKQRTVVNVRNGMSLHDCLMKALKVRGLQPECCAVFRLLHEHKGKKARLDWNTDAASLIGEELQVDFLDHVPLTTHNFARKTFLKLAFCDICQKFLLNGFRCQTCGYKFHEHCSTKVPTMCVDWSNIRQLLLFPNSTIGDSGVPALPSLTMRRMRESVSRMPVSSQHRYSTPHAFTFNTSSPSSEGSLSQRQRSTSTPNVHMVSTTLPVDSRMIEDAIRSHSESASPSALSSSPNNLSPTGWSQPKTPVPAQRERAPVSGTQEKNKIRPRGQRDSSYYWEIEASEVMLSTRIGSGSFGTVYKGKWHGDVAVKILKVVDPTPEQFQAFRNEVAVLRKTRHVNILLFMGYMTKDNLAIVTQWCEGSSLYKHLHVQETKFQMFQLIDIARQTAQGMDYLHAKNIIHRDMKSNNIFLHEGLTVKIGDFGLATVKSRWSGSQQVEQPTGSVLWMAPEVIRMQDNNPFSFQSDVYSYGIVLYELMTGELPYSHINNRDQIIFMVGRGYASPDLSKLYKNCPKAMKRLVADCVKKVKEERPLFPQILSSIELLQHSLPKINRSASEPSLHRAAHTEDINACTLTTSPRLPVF
# Description: as §1
# ROS/ROS1 = ROS/ROS1 (Homo sapiens (Human), UniProt P08922); assay: Kinase panel screening; conditions: read-out: % inhibition rate
# Description: as §1
# MEK1 = MEK1 (Homo sapiens (Human), UniProt Q02750); assay: Kinase panel screening; conditions: read-out: % inhibition rate
# Description: as §1
# BRAF = BRAF (Homo sapiens (Human), UniProt P15056); assay: Kinase panel screening; conditions: read-out: % inhibition rate
# Description: as §1
# BRAF (V599E) = BRAF (V599E) (Homo sapiens (Human), UniProt P15056, V600E); assay: Kinase panel screening; conditions: read-out: % inhibition rate
# Description: as §1
# ALK = ALK (Homo sapiens (Human), UniProt Q9UM73); assay: Kinase panel screening; conditions: read-out: % inhibition rate
# Description: as §1
# CDK1/cyclinB = CDK1/cyclinB (Homo sapiens (Human), UniProt P06493); assay: Kinase panel screening; conditions: read-out: % inhibition rate
# Description: as §1
# SYK = SYK (Homo sapiens (Human), UniProt P43405); assay: Kinase panel screening; type: biochemical; conditions: single dose of 10 μM, read-out: % inhibition rate
# JNK3 = JNK3 (Homo sapiens (Human), UniProt P53779); assay: Kinase panel screening; conditions: read-out: % inhibition rate
# Description: as §1
# MTOR/FRAP1 = MTOR/FRAP1 (Homo sapiens (Human), UniProt P42345); assay: Kinase panel screening; type: biochemical; conditions: read-out: % inhibition rate
# CDK2/cyclin E = CDK2/cyclin E (Homo sapiens (Human), UniProt P24941); assay: Kinase panel screening; type: biochemical; conditions: read-out: % inhibition rate
# JAK3 = JAK3 (Homo sapiens (Human), UniProt P52333); assay: Kinase panel screening; conditions: read-out: % inhibition rate
# Description: as §1
# FMS = FMS (Homo sapiens (Human), UniProt P07333); assay: Kinase panel screening; type: biochemical; conditions: read-out: % inhibition rate
# P38a/MAPK14 = P38a/MAPK14 (Homo sapiens (Human), UniProt Q16539); assay: Kinase panel screening; conditions: read-out: % inhibition rate
# Sequence of P38a/MAPK14 (Q16539 whole entry): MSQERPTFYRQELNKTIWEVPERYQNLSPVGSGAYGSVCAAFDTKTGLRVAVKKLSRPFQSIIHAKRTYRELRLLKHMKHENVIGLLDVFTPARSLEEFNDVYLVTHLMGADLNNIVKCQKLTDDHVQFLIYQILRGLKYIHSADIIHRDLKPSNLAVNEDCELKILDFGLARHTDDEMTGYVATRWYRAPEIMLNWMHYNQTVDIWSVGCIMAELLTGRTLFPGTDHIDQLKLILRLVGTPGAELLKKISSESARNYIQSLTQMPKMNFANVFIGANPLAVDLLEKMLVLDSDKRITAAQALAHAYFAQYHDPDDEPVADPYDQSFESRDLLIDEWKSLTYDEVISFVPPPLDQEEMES
# Description: as §1
# FLT3 [2] = target: T1, FLT3; assay: Kinase panel screening; conditions: read-out: % inhibition rate
# Description: as §1
# c-Kit = c-Kit (Homo sapiens (Human), UniProt P10721); assay: Kinase panel screening; conditions: read-out: % inhibition rate
# Description: as §1
# c-Src = c-Src (Homo sapiens (Human), UniProt P12931); assay: Kinase panel screening; conditions: read-out: % inhibition rate
# Description: as §1
# c-MET = c-MET (Homo sapiens (Human), UniProt P08581); assay: Kinase panel screening; conditions: read-out: % inhibition rate
# Description: as §1
# PKA = PKA (Homo sapiens (Human), UniProt P17612); assay: Kinase panel screening; conditions: read-out: % inhibition rate
# Description: as §1
# FLT1/VEGFR1 = FLT1/VEGFR1 (Homo sapiens (Human), UniProt P17948); assay: Kinase panel screening; conditions: read-out: % inhibition rate
# Description: as §1
# FGFR3 = FGFR3 (Homo sapiens (Human), UniProt P22607); assay: Kinase panel screening; conditions: read-out: % inhibition rate
# Description: as §1
# ABL1 = ABL1 (Homo sapiens (Human), UniProt P00519); assay: Kinase panel screening; type: biochemical; conditions: read-out: % inhibition rate
# Sequence of ABL1 (P00519 whole entry, species assumed): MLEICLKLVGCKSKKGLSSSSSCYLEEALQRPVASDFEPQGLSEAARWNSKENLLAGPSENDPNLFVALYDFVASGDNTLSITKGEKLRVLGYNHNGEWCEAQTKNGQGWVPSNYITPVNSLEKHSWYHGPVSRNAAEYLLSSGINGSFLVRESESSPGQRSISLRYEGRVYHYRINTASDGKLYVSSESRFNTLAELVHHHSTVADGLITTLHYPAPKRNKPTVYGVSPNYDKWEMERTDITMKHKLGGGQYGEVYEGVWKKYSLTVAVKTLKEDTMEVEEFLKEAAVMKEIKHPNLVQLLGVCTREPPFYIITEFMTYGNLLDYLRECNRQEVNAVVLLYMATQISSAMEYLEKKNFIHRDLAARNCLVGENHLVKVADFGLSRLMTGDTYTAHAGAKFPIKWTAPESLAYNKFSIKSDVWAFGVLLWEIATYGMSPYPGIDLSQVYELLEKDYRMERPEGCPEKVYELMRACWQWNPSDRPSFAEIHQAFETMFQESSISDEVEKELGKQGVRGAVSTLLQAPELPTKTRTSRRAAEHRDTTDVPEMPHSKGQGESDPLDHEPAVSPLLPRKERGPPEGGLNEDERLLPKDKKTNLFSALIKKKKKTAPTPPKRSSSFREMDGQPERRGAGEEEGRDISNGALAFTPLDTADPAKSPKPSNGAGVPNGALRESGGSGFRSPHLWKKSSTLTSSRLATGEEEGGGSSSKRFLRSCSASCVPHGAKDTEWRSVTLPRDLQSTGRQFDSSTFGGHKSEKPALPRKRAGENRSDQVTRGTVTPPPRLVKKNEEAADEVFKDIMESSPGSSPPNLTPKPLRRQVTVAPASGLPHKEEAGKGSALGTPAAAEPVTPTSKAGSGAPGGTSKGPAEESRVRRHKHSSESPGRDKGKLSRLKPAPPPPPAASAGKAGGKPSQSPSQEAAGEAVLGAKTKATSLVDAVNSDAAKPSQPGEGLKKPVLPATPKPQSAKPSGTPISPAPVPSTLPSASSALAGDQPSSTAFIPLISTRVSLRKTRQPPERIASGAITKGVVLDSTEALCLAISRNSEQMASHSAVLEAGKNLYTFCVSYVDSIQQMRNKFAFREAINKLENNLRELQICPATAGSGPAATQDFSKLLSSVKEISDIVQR
# KDR/VEGFR2 = KDR/VEGFR2 (Homo sapiens (Human), UniProt P35968); assay: Kinase panel screening; type: biochemical; conditions: read-out: % inhibition rate
# Sequence of KDR/VEGFR2 (P35968 20-1356): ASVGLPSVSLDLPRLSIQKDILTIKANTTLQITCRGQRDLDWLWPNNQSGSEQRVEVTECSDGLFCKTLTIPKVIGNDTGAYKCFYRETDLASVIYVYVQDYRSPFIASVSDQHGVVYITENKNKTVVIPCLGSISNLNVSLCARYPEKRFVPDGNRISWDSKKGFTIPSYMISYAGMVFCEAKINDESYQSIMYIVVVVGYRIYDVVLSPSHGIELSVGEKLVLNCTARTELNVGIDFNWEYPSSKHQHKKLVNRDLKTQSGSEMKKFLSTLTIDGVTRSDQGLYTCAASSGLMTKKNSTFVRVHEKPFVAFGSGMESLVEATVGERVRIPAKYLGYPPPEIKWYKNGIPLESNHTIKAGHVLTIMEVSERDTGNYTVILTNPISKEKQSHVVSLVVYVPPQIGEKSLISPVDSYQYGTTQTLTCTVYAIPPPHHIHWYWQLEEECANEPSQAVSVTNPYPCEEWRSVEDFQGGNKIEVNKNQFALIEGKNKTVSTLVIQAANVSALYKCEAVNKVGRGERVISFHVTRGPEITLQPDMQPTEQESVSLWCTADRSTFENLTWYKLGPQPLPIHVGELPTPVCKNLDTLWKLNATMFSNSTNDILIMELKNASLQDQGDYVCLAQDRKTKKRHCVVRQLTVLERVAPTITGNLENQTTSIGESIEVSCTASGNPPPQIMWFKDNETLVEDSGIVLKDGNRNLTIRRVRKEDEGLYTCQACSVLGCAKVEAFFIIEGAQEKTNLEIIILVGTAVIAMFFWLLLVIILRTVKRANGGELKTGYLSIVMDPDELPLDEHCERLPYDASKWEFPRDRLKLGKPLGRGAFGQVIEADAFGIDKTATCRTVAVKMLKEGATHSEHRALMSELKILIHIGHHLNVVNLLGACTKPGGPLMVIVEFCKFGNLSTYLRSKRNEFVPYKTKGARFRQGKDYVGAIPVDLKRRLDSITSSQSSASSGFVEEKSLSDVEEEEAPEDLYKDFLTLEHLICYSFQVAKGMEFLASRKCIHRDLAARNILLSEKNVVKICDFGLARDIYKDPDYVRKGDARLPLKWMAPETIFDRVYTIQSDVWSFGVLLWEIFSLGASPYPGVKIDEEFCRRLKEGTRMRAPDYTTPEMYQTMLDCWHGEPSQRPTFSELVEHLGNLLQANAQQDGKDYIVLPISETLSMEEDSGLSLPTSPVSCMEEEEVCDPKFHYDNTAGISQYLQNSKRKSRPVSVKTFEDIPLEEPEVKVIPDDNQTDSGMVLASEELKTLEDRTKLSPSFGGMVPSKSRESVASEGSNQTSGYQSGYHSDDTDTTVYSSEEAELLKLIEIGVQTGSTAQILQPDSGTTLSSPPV
# GSK3b = GSK3b (Homo sapiens (Human), UniProt P49841); assay: Kinase panel screening; type: biochemical; conditions: read-out: % inhibition rate
# Sequence of BTK (Q06187 whole entry, species assumed): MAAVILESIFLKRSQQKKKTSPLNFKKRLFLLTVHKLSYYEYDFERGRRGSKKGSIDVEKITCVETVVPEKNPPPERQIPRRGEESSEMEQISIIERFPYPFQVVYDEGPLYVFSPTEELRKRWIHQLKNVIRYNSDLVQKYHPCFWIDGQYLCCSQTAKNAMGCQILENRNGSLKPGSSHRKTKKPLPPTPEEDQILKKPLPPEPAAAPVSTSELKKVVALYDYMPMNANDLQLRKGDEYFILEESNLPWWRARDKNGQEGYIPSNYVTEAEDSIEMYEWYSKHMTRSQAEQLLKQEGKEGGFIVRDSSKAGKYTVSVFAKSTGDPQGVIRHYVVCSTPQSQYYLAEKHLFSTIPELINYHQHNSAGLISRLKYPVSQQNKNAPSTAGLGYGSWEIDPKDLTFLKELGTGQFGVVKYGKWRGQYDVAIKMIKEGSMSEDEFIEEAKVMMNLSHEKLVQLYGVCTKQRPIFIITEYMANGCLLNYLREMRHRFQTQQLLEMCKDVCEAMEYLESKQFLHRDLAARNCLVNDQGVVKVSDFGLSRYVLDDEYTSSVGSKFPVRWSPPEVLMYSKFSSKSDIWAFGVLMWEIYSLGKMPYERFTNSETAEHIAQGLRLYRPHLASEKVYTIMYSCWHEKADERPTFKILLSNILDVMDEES
compound,measurement,setting,value
"Cc1oncc1C(=O)Nc1ccc2[nH]c(-c3cc(N4CCOCC4)cc(C(F)(F)F)c3)nc2c1 [Compound 5b, 5-methyl-N-(2-(3-morpholino-5-(trifluoromethyl)phenyl)-1H-benz[d]imidazol-5-yl)isoxazole-4-carboxamide]",inhibition at 10 µM,BTK,19.3%
same,inhibition at 10 µM,RON/MSTIR,0%
same,inhibition at 10 µM,LCK,0%
same,inhibition at 10 µM,IGFIR,0%
same,inhibition at 10 µM,ERK1,0%
same,inhibition at 10 µM,Aurora A,6.4%
same,IC50,"FLT3 [1]; FLT3 enzyme activity, read-out: FLT3 (IC50)",3 to 10 µM
same,IC50,"FLT3 [1]; FLT3 kinase activity, read-out: IC50 against FLT3",7.94 µM
same,inhibition at 10 µM,LYN,0%
same,inhibition at 10 µM,PLK1,2.86%
same,inhibition at 10 µM,EGFR,0%
same,inhibition at 10 µM,AKT1,10.9%
same,inhibition at 10 µM,RAFI,15.7%
same,inhibition at 10 µM,ROS/ROS1,7.4%
same,inhibition at 10 µM,MEK1,0%
same,inhibition at 10 µM,BRAF,0%
same,inhibition at 10 µM,BRAF (V599E),25.2%
same,inhibition at 10 µM,ALK,0%
same,inhibition at 10 µM,CDK1/cyclinB,2.76%
same,inhibition at 10 µM,SYK,2.18%
same,inhibition at 10 µM,JNK3,0%
same,inhibition at 10 µM,MTOR/FRAP1,0%
same,inhibition at 10 µM,CDK2/cyclin E,0%
same,inhibition at 10 µM,JAK3,0.94%
same,inhibition at 10 µM,FMS,0%
same,inhibition at 10 µM,P38a/MAPK14,0%
same,inhibition at 10 µM,FLT3 [2],73%
same,inhibition at 10 µM,c-Kit,0%
same,inhibition at 10 µM,c-Src,0%
same,inhibition at 10 µM,c-MET,0%
same,inhibition at 10 µM,PKA,2.38%
same,inhibition at 10 µM,FLT1/VEGFR1,0%
same,inhibition at 10 µM,FGFR3,0%
same,inhibition at 10 µM,ABL1,0%
same,inhibition at 10 µM,KDR/VEGFR2,0%
same,inhibition at 10 µM,GSK3b,2.8%
